PubChem BioAssay AID330 (DTP/NCI, 2004)
Inconclusive results and toxic doses are left out. Rule for the calls: active = survival T/C of 150% or more; inactive = T/C below 125% in these data.

Tested on: P388 leukemia ip, CD2F1 mice, survival T/C
Assay: NCI In Vivo Anticancer Drug Screen. Data for tumor model P388 Leukemia (intraperitoneal) in CD2F1 (CDF1) mice
Conditions: endpoint: median survival time, higher = longer survival
In short: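 Mice carrying the transplanted tumor received test compound or vehicle. Survival was recorded in each group, and the value is the treated-group measurement divided by that of the vehicle-treated control group.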

[1] = dose: 25.0 mg/kg/injection, schedule: Q01DX009 (ip), vehicle: Klucel (hydroxypropylcellulose) (HPC)
[2] = dose: 50.0 mg/kg/injection, schedule: Q01DX009 (ip), vehicle: Klucel (hydroxypropylcellulose) (HPC)
[3] = dose: 100.0 mg/kg/injection, schedule: Q01DX009 (ip), vehicle: Klucel (hydroxypropylcellulose) (HPC)
[4] = dose: 200.0 mg/kg/injection, schedule: Q01DX009 (ip), vehicle: Klucel (hydroxypropylcellulose) (HPC)
[5] = dose: 50.0 mg/kg/injection, schedule: Q01DX005 (ip), vehicle: Klucel (hydroxypropylcellulose) (HPC)

Measured: T/C

COc1cc2c(cc1OC)-c1c(C)c3ccc(OC)c(NCCO)c3c[n+]1CC2
inactive: dose: 50.0 mg/kg/injection, schedule: Q04DX003 (ip), vehicle: water 102 % of control | dose: 100.0 mg/kg/injection, schedule: Q04DX003 (ip), vehicle: water 107 % of control

CC(=O)NC(Cc1cc(I)c(O)c(I)c1)C(=O)O (configuration not stated)
inactive: [1] 94 % of control | [2] 88 % of control | dose: 50.0 mg/kg/injection, schedule: Q01DX009 (ip), vehicle: saline 100 % of control | [3] 94 % of control | dose: 100.0 mg/kg/injection, schedule: Q01DX009 (ip), vehicle: saline 107 % of control | [4] 94 % of control | dose: 200.0 mg/kg/injection, schedule: Q01DX009 (ip), vehicle: saline 105 % of control

CCC1(CC)CC1C(=O)O (configuration not stated)
inactive: [5] 93 % of control | dose: 100.0 mg/kg/injection, schedule: Q01DX005 (ip), vehicle: Klucel (hydroxypropylcellulose) (HPC) 89 % of control | dose: 200.0 mg/kg/injection, schedule: Q01DX005 (ip), vehicle: Klucel (hydroxypropylcellulose) (HPC) 89 % of control

C=C(C)[C@@H]1CC[C@]2(C(=O)OC)CC[C@]3(C)[C@H](CC[C@@H]4[C@@]5(C)CC[C@H](O)C(C)(C)[C@@H]5CC[C@]43C)[C@@H]12
inactive: [1] 107 % of control | [2] 102 % of control | [3] 98 % of control | [4] 102 % of control

NC(=O)NN=C(C1CC1)C1CC1
inactive: dose: 3.12 mg/kg/injection, schedule: Q01DX005 (ip), vehicle: Klucel (hydroxypropylcellulose) (HPC) 115 % of control | dose: 6.25 mg/kg/injection, schedule: Q01DX005 (ip), vehicle: Klucel (hydroxypropylcellulose) (HPC) 98 % of control | dose: 12.5 mg/kg/injection, schedule: Q01DX005 (ip), vehicle: Klucel (hydroxypropylcellulose) (HPC) 104 % of control | [5] 99 % of control

CC1(C)N=C(N)N=C(N)N1c1ccc(CCCCc2cccc(S(=O)(=O)F)c2)c(Cl)c1
active: dose: 3.3 mg/kg/injection, schedule: Q01DX009 (ip), vehicle: saline with Tween-80 160 % of control | dose: 5.0 mg/kg/injection, schedule: Q01DX009 (ip), vehicle: saline with Tween-80 150 % of control | dose: 6.25 mg/kg/injection, schedule: Q01DX009 (ip), vehicle: saline with Tween-80 150 % of control | dose: 7.5 mg/kg/injection, schedule: Q01DX009 (ip), vehicle: saline with Tween-80 155 % of control | dose: 8.0 mg/kg/injection, schedule: Q01DX009 (ip), vehicle: saline with Tween-80 154 % of control | dose: 8.0 mg/kg/injection, schedule: Q01DX009 (ip), vehicle: saline 157 % of control | dose: 12.0 mg/kg/injection, schedule: Q01DX009 (ip), vehicle: saline with Tween-80 163 % of control | dose: 12.0 mg/kg/injection, schedule: Q01DX009 (ip), vehicle: saline 154 % of control | dose: 12.5 mg/kg/injection, schedule: Q01DX009 (ip), vehicle: saline with Tween-80 150 % of control | dose: 18.0 mg/kg/injection, schedule: Q01DX009 (ip), vehicle: saline with Tween-80 150 % of control | dose: 18.0 mg/kg/injection, schedule: Q01DX009 (ip), vehicle: saline 181 % of control | dose: 27.0 mg/kg/injection, schedule: Q01DX009 (ip), vehicle: saline with Tween-80 150 % of control
inactive: dose: 0.11 mg/kg/injection, schedule: Q01DX009 (ip), vehicle: saline with Tween-80 107 % of control | dose: 0.17 mg/kg/injection, schedule: Q01DX009 (ip), vehicle: saline with Tween-80 111 % of control | dose: 0.25 mg/kg/injection, schedule: Q01DX009 (ip), vehicle: saline with Tween-80 115 % of control | dose: 0.66 mg/kg/injection, schedule: Q01DX009 (ip), vehicle: saline with Tween-80 107 % of control | dose: 1.0 mg/kg/injection, schedule: Q01DX009 (ip), vehicle: saline with Tween-80 109 % of control | dose: 25.0 mg/kg/injection, schedule: Q01DX009 (ip), vehicle: saline with Tween-80 95 % of control

C1CC[N-]CC1.C1CC[N-]CC1.[Co].[N-]=C=S.[N-]=C=S
inactive: dose: 100.0 mg/kg/injection, schedule: Q01DX001 (ip), vehicle: saline with Tween-80 100 % of control

COc1ccc2c(c1)CCc1c-2n[nH]c1-c1[nH]nc2c1CCc1cc(OC)ccc1-2
inactive: dose: 60.0 mg/kg/injection, schedule: Q01DX005 (ip), vehicle: Klucel (hydroxypropylcellulose) (HPC) 93 % of control | dose: 120.0 mg/kg/injection, schedule: Q01DX005 (ip), vehicle: Klucel (hydroxypropylcellulose) (HPC) 93 % of control | dose: 240.0 mg/kg/injection, schedule: Q01DX005 (ip), vehicle: Klucel (hydroxypropylcellulose) (HPC) 94 % of control
